Source: patent publication US6117365A, “Phenolic acid amides of hydroxy-substituted benzylamines” (Haarmann & Reimer GmbH, priority 1997, dated 2000)

Assays:
[1] = accelerated autoxidation of lipids by air using a RANCIMAT apparatus (activity as antioxidants); conditions: for AOI (antioxidative index) = IP(with test solution)/IP(control sample): 0.05% of test substance, soy bean oil, 100° C., dry air stream 20 l/h
Procedure: The activity of example compounds 1 to 16 as antioxidants was compared with that of traditional antioxidants. The test system used was the accelerated autoxidation of lipids by air with or without antioxidant using a RANCIMAT apparatus (RANCIMAT is a registered trade mark of Metrohm AG, Herisau, Switzerland).
The example compounds, vitamin C, α-tocopherol, BHT, ferulic acid and the naturally occurring N-(2-[4-hydroxyphenyl]-ethyl)-4-hydroxy-3-methoxy-E-cinnamamide were dissolved in methanol or acetone, and 100 μl of each test solution were added to a 3 g pre-prepared oil sample (soy bean oil, purified over alumina type N). In a control sample, only solvent was added. A constant, dry air stream (20 l/h) was blown through the oil sample, which contained the test solution and was heated to 100° C., and the volatile oxidation products (predominantly short-chain fatty acids such as formic or acetic acid) were collected in a receiver containing water. The conductivity of this aqueous solution was continuously measured and recorded. The oxidation of (unsaturated) fats proceeds only very slowly for some time and then suddenly increases. The time to the increase is referred to as the induction period (IP).
The following equation was used to calculate the antioxidative index (AOI):
AOI=IP(with test solution) /IP(control sample)

[2] = DPPH test for the removal of free radicals (activity as free-radical scavengers); conditions: for EC50 (effective relative concentration, c(test compound)/c(DPPH), at which 50% of the free radical DPPH had been removed): DPPH 100 μmol/l in methanol, absorption at 515 nm read until the decrease was less than 2% per hour
Procedure: The activity of example compounds 1 to 16 as free-radical scavengers was compared with that of a traditional free-radical scavenger. The DPPH (1,1-diphenyl-2-picrylhydrazyl) test for the removal of free radicals was used.
DPPH was dissolved in methanol to a concentration of 100 μmol/l. A series of dilutions of the example compounds, vitamin C, α-tocopherol, BHT, ferulic acid and of the naturally occurring N-(2-[4-hydroxyphenyl]ethyl)-4-hydroxy-3-methoxy-E-cinnamamide were prepared in methanol. Methanol was used as the control. 2500 μl of the DPPH solution were mixed with 500 μl of each test solution and the decrease in absorption at 515 nm was read until the decrease was less than 2% per hour. The activity of the test substances as free-radical scavengers was calculated using the following equation:
Activity as free-radical scavenger (%)=100-(absorption of the test
compounds)/(absorption of the control)×100.
The activity as free-radical scavengers (%) in a series of dilutions of test compounds was used to calculate, for each test compound, the effective relative concentration EC50 (based on the starting concentration of DPPH, EC=c (test compound)/c(DPPH)) of a test compound, at which 50% of the free radical DPPH had been removed.

[3] = comparison in words with reference substances

Row | EC50 (effective relative concentration, c(test compound)/c(DPPH), at which 50% of the free radical DPPH had been removed) [2] [mol/mol] | Compound | AOI (antioxidative index) = IP(with test solution)/IP(control sample) [1] | action as antioxidant, in words [1, 3] | action as free-radical scavenger, in words [2, 3]
1 | 0.1 | COc1cc(/C=C/C(=O)NCc2ccc(O)c(O)c2)ccc1O [Example 1, N-(3,4-Dihydroxybenzyl)-4-hydroxy-3-methoxy-E-cinnamamide] | 11.41 | – | –
2 | 0.103 | COc1cc(CC(=O)NCc2ccc(O)c(O)c2)ccc1O [Example 6, N-(3,4-Dihydroxybenzyl)-4-hydroxy-3-methoxyphenylacetamide] | 13.9 | – | –
3 | 0.094 | COc1cc(CCC(=O)NCc2ccc(O)c(O)c2)ccc1O [Example 7, N-(3,4-Dihydroxybenzyl)-3-(4-hydroxy-3-methoxyphenyl)-propanamide] | 7.7 | – | –
4 | 0.119 | COc1cc(CNC(=O)CCc2ccc(O)c(O)c2)ccc1O [Example 8, N-(4-Hydroxy-3-methoxybenzyl)-3-(3,4-dihydroxyphenyl)-proyanamide] | 13.2 | – | –
5 | 0.07 | O=C(CCc1ccc(O)c(O)c1)NCc1ccc(O)c(O)c1 [Example 9, N-(3,4-Dihydroxybenzyl)-3-(3,4-dihydroxyphenyl)-propanamide] | 19.8 | – | –
6 | 0.069 | O=C(CCc1ccc(O)c(O)c1)NCc1ccc(O)c(O)c1O [Example 10, N-(2,3,4-Trihydroxybenzyl)-3-(3,4-dihydroxyphenyl)-pronanamide] | 24.6 | – | –
7 | 0.043 | O=C(/C=C/c1ccc(O)c(O)c1)NCc1ccc(O)c(O)c1 [Example 11, N-(3,4-Dihydroxybenzyl)-3,4-dihydroxy-E-cinnamamide] | 14.9 | – | –
8 | 0.089 | COc1cc(CNC(=O)/C=C/c2ccc(O)c(O)c2)ccc1O [Example 12, N-(4-Hydroxy-3-methoxybenzyl)-3,4-dihydroxy-E-cinnamamide] | 14.3 | – | –
9 | 0.054 | O=C(/C=C/c1ccc(O)c(O)c1)NCc1ccc(O)c(O)c1O [Example 14, N-(2,3,4-Trihydroxybenzyl)-3,4-dihydroxy-E-cinnamamide] | 27.5 | – | –
10 | 0.105 | COc1cc(CNC(=O)Cc2ccc(O)c(O)c2)ccc1O [Example 15, N-(4-Hydroxy-3-methoxybenzyl)-3,4-dihydroxyphenylacetamide] | 7.84 | – | –
11 | 0.053 | O=C(Cc1ccc(O)c(O)c1)NCc1ccc(O)c(O)c1 [Example 16, N-(3,4-Dihydroxybenzyl)-3,4-dihydroxyphenylacetamide] | 8.84 | – | –

The next lines start with the compound.

Row | Compound | EC50 (effective relative concentration, c(test compound)/c(DPPH), at which 50% of the free radical DPPH had been removed) [2] [mol/mol] | AOI (antioxidative index) = IP(with test solution)/IP(control sample) [1] | action as antioxidant, in words [1, 3] | action as free-radical scavenger, in words [2, 3]
12 | Cc1cc(C(C)(C)C)c(O)c(C(C)(C)C)c1 [BHT, 2,6-di-tert-butyl-4-methylphenol, reference compound] | 0.240 | 4.77 | – | –
13 | COc1cc(/C=C/C(=O)NCc2ccc(O)c(O)c2)cc(OC)c1O [Example 2, N-(3,4-Dihydroxybenzyl)-3,5-dimethoxy-4-hydroxy-E-cinnamamide] | 0.097 | 7.58 | – | –
14 | COc1cc(/C=C/C(=O)NCc2ccc(O)c(O)c2O)ccc1O [Example 3, N-(2,3,4-Trihydroxybenzyl)-4-hydroxy-3-methoxy-E-cinnamamide] | 0.097 | 11.7 | – | –
15 | COc1cc(/C=C/C(=O)NCc2ccc(O)c(O)c2O)cc(OC)c1O [Example 4, N-(2,3,4-Trihydroxybenzyl)-3,5-dimethoxy-4-hydroxy-E-cinnamamide] | 0.1 | 17.3 | – | –
16 | COc1cc(/C=C/C(=O)NCc2cc(O)c(O)c(O)c2)ccc1O [Example 5, N-(3,4,5-Trihydroxybenzyl)-4-hydroxy-3-methoxy-E-cinnamamide] | 0.0097 | 21.4 | – | –
17 | COc1cc(CNC(=O)/C=C/c2ccc(O)c(O)c2)cc(OC)c1O [Example 13, N-(3,5-Dimethoxy-4-hydroxybenzyl)-3,4-dihydroxy-E-cinnamamide] | 0.1 | 3.6 | – | –
18 | COc1cc(/C=C/C(=O)O)ccc1O [Ferulic acid, ferulic acid, reference compound] | 0.350 | 1.79 | – | –
19 | COc1cc(/C=C/C(=O)NCCc2ccc(O)cc2)ccc1O [N-(2-[4-hydroxyphenyl]ethyl)-4-hydroxy-3-methoxy-E-cinnamamide, reference compound] | 0.441 | 1.41 | no better than α-tocopherol | no better than α-tocopherol
20 | O=C1O[C@H]([C@@H](O)CO)C(O)=C1O [Vitamin C, L-ascorbic acid, reference compound] | 0.270 | 1.17 | – | –
21 | Cc1c(C)c2c(c(C)c1O)CCC(C)(CCCC(C)CCCC(C)CCCC(C)C)O2 (stereo not drawn) [α-Tocopherol, α-tocopherol, reference compound] | 0.250 | 5.05 | – | –
